Experimental data taken from a melting point compilation (Tetko et al.; mined from patent text by program, amines drawn as free bases though some values may be those of a salt).

SMILES	melting point
CC(C)(C)OC(=O)NCc1cccc(-c2nc(=O)c3ccccc3s2)n1	160 to 162 °C
CC[C@@H](CNc1ccc(C)cc1C)NS(=O)(=O)c1c(N)cc(Cl)cc1Cl	151 °C
COCCN1Cc2cc(C(=O)O)ccc2N(C)C(CC(=O)O)C1=O (stereo not given)	228 to 230 °C
Cc1[nH]c(=O)n(-c2cc(C(=O)OC(C)C)c(Cl)cc2F)c(=O)c1C	155 to 157 °C
NCCCn1ccc2cc(NC(=O)c3nc4ccc(Cl)cc4n3Cc3ccccc3)ccc21	106 to 108 °C
COC(=O)C1NC(C(=O)OC)C(C(=O)OC)NC1C(=O)OC (stereo not given)	162 to 163 °C
NC(=O)c1cn2c(ccc3ccccc32)n1	270 to 271 °C
COc1c(C)cc(-c2[nH]c3ccc(NS(=O)(=O)c4ccc(C)cc4)cc3c2C)cc1C	192 to 194 °C
CC(=O)Oc1cc(OCC(F)(F)C(F)(F)F)ccc1C(=O)O	126 °C
CNC(=O)C1(Oc2ccc3c(c2)c(-c2cc4cccnc4[nH]2)cn3C)CCC1	249 to 250 °C
CN(C)C1(c2ccccc2Cl)C(=O)N(Cc2ccc(C(=O)NC(C)(C)C)cc2)c2ccc(Cl)cc21 (stereo not given)	177 to 178 °C
CN(C1CCC(O)CC1)S(=O)(=O)c1ccc(Nc2nccc(Nc3ccc(F)cc3)n2)cc1 (stereo not given)	203 °C
CC(C)CCn1cc([N+](=O)[O-])cc1C(=O)Nc1cc(C(=O)NCCCN2CCOCC2)n(C)c1	155 to 158 °C
CC1CCCCN1C(=O)C=Cc1ccc(F)cc1 (stereo not given)	114 to 116 °C
COc1cc(OC)c(/C=C/S(=O)(=O)Nc2ccc(OC)c(NC(C)=O)c2)c(OC)c1	296 to 298 °C
N#CC1=C(Nc2ccc(F)cc2F)CCC1	116 to 119 °C
CCCCCCCCCCCCCCCC(=O)Nc1ccc(O)c(C(C)=O)c1	120 to 122 °C
Cc1c(-c2ccc(Cl)c(F)c2)sc2nc(N)[nH]c(=O)c12	350 to 370 °C
Cc1c(C(F)(F)F)noc1NS(=O)(=O)c1ccccc1	99.5 to 100 °C
CCCn1nc2c(N)nc3ccccc3c2c1CCCCN1C(C)=NOC12CCCC2	101 to 105 °C

SMILES	melting point
O=C(Cn1nnnc1-c1ccoc1)OCCO	91 to 93 °C
COc1cc2c3ccc(OC)c(OC)c3n(S(C)(=O)=O)c2cc1OC	164 to 165 °C
CC(=O)Nc1ccc(NCc2cnc3nc(N)nc(N)c3n2)cc1	> 260 °C
Clc1ccccc1-c1nc(-c2ccccc2)c(-c2ccccc2)[nH]1	196 to 197 °C
Oc1ccc(C(F)(F)C(F)(F)OC(F)(F)C(F)(F)OC(F)(F)C(F)(F)c2ccc(O)cc2)cc1	118 to 120 °C
CCNc1c(C(=O)O)ccc(Br)c1OCC	129 to 139 °C
O=C(C(c1ccccc1)n1cnc2[nH]ncc2c1=S)N1CCN(c2ccccn2)CC1 (stereo not given)	242 to 246 °C
CC(C#Cc1ccc(OCc2ccccc2)cc1)N(O)C(N)=O (stereo not given)	154 to 156 °C
COC(=O)c1cccc(NC(=O)C(C)CSC(C)=O)n1 (stereo not given)	75 to 77 °C
COC1SC=C(C)NC1=O (stereo not given)	157 to 160 °C
O=C(O)[C@H](Cc1ccc(C(F)(F)F)cc1)[C@@H](O)c1cccc2ccccc12 (racemic)	151 to 152 °C
O=C(C[C@H](C(=O)N[C@H](COC(=O)OCc1ccccc1)c1ccccc1)n1ccc(-c2ccc(-c3ccncc3)cc2)c1)OCc1ccccc1	138 to 140 °C
Cc1c(-c2ccncc2)sc(-c2ccncc2)c1CF	148 °C
CC(=O)c1ccc(NS(C)(=O)=O)c(C(=O)Nc2ccc(F)cc2F)c1	153 to 155 °C
COc1c(N2CC(C)C(N)C(C)C2)c(F)cc2c(=O)c(C(=O)O)cn(C3CC3)c12 (stereo not given)	178 to 180 °C
Cc1ccc(SC2CC(=O)N2CC(=O)NCCCCCCc2ccc(Cl)cc2)cc1 (stereo not given)	63 to 65 °C
O=C(COc1cc(-c2ccc(Cl)cc2)nc2ccccc12)N1CCOCC1	191 °C
CC(N)Cc1cccc(N)c1 (stereo not given)	78 to 79 °C
O=C1c2cccc3cc([N+](=O)[O-])cc(c23)C(=O)N1O	277 to 279 °C
O=C(NCc1ccc(Oc2ccccc2)cc1)C1CCC1	69 to 71 °C
